ChEMBL document CHEMBL1201862, “PubChem BioAssay data set” (2004)
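Cultured in 96-well plates, cells were exposed to test compound for 48 hours across five concentrations. GI50 is the concentration that inhibits growth by half.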 The source made the active and inactive calls. No stated cut-off is given here; in the data, active = GI50 up to about 1.1 µM and inactive = higher.

Assays:
Test in all cases: NCI anticancer screen, dose series, 48 h
A498 = system: A498
A549 = system: A549
ACHN = system: ACHN
BT-549 = system: BT-549
CAKI-1 = system: CAKI-1
EKVX = system: EKVX
HCC 2998 = system: HCC 2998
HCT-15 = system: HCT-15
HL-60 = system: HL-60
HOP-62 = system: HOP-62
HOP-92 = system: HOP-92
KM12 = system: KM12
M14 = system: M14
MDA-MB-231 = system: MDA-MB-231
MDA-MB-435 = system: MDA-MB-435
MOLT-4 = system: MOLT-4
NCI-H226 = system: NCI-H226
NCI-H23 = system: NCI-H23
NCI-H460 = system: NCI-H460
NCI/ADR-RES = system: NCI/ADR-RES
OVCAR-3 = system: OVCAR-3
OVCAR-4 = system: OVCAR-4
OVCAR-5 = system: OVCAR-5
OVCAR-8 = system: OVCAR-8
PC-3 = system: PC-3
RPMI-8226 = system: RPMI-8226
RXF 393 = system: RXF 393
SF-268 = system: SF-268
SF-295 = system: SF-295
SF-539 = system: SF-539
SK-MEL-28 = system: SK-MEL-28
SK-MEL-2 = system: SK-MEL-2
SK-OV-3 = system: SK-OV-3
SN12C = system: SN12C
SNB-19 = system: SNB-19
SNB-75 = system: SNB-75
SW-620 = system: SW-620
TK-10 = system: TK-10
U-251 = system: U-251
UACC-257 = system: UACC-257
UACC-62 = system: UACC-62
UO-31 = system: UO-31
786-0 = system: 786-0
CCRF-CEM = system: CCRF-CEM
COLO 205 = system: COLO 205
DU-145 = system: DU-145
HCT-116 = system: HCT-116
HT-29 = system: HT-29
Hs-578T = system: Hs-578T
IGROV-1 = system: IGROV-1
K562 = system: K562
LOX IMVI = system: LOX IMVI
MCF7 = system: MCF7
MDA-N = system: MDA-N
Malme-3M = system: Malme-3M
SK-MEL-5 = system: SK-MEL-5
SR = system: SR
NCI-H522 = system: NCI-H522

CN(C)CCCn1c(-c2cc(C(C)(C)C)c(O)c(C(C)(C)C)c2)cs/c1=N\c1ccccc1
GI50 (A498): 1.94 µM (inactive) | GI50 (A549): 1.77 µM (inactive) | GI50 (ACHN): 2.98 µM (inactive) | GI50 (BT-549): 3.13 µM (inactive) | GI50 (CAKI-1): 17.8 µM (inactive) | GI50 (EKVX): 2.16 µM (inactive) | GI50 (HCC 2998): 1.85 µM (inactive) | GI50 (HCT-15): 3.24 µM | GI50 (HL-60): 0.1 µM (active) | GI50 (HOP-62): 1.89 µM (inactive) | GI50 (HOP-92): 2.26 µM (inactive) | GI50 (KM12): 1.91 µM (inactive) | GI50 (M14): 1.72 µM (inactive) | GI50 (MDA-MB-231): 2.34 µM (inactive) | GI50 (MDA-MB-435): 2.34 µM (inactive) | GI50 (MOLT-4): 0.131 µM (active) | GI50 (NCI-H226): 1.98 µM (inactive) | GI50 (NCI-H23): 1.68 µM (inactive) | GI50 (NCI-H460): 2.35 µM (inactive) | GI50 (NCI/ADR-RES): 1.79 µM (inactive) | GI50 (OVCAR-3): 1.61 µM (inactive) | GI50 (OVCAR-4): 2.09 µM (inactive) | GI50 (OVCAR-5): 2.23 µM (inactive) | GI50 (OVCAR-8): 1.97 µM (inactive) | GI50 (PC-3): 1.87 µM (inactive) | GI50 (RPMI-8226): 1.4 µM (inactive) | GI50 (RXF 393): 2.17 µM (inactive) | GI50 (SF-268): 1.85 µM (inactive) | GI50 (SF-295): 1.79 µM (inactive) | GI50 (SF-539): 1.75 µM (inactive) | GI50 (SK-MEL-28): 2.39 µM (inactive) | GI50 (SK-MEL-2): 3.06 µM (inactive) | GI50 (SK-OV-3): 1.96 µM (inactive) | GI50 (SN12C): 2.08 µM (inactive) | GI50 (SNB-19): 2.14 µM (inactive) | GI50 (SNB-75): 3.88 µM (inactive) | GI50 (SW-620): 76.6 µM (inactive) | GI50 (TK-10): 1.95 µM (inactive) | GI50 (U-251): 2.93 µM (inactive) | GI50 (UACC-257): 1.47 µM (inactive) | GI50 (UACC-62): 2.3 µM (inactive) | GI50 (UO-31): 1.97 µM (inactive)

CC(=O)OCC1OC(n2c3c(c(-c4ccco4)c(C#N)c2=S)CCC3)C(OC(C)=O)C(OC(C)=O)C1OC(C)=O (stereo not drawn)
GI50 (786-0): 49.7 µM (inactive) | GI50 (A549): > 100 µM (inactive) | GI50 (ACHN): > 100 µM (inactive) | GI50 (BT-549): 43.9 µM (inactive) | GI50 (CAKI-1): 55.1 µM (inactive) | GI50 (CCRF-CEM): 8.09 µM (inactive) | GI50 (COLO 205): > 100 µM (inactive) | GI50 (DU-145): > 100 µM (inactive) | GI50 (HCC 2998): > 100 µM (inactive) | GI50 (HCT-116): > 100 µM (inactive) | GI50 (HCT-15): > 100 µM | GI50 (HL-60): 82.8 µM (inactive) | GI50 (HOP-62): > 100 µM (inactive) | GI50 (HOP-92): 15.6 µM (inactive) | GI50 (HT-29): > 100 µM (inactive) | GI50 (Hs-578T): 40.9 µM (inactive) | GI50 (IGROV-1): 69.3 µM (inactive) | GI50 (K562): 21.9 µM (inactive) | GI50 (KM12): > 100 µM (inactive) | GI50 (LOX IMVI): 60.1 µM (inactive) | GI50 (M14): > 100 µM (inactive) | GI50 (MCF7): 63.8 µM (inactive) | GI50 (MDA-MB-435): 68.9 µM (inactive) | GI50 (MDA-N): > 100 µM (inactive) | GI50 (MOLT-4): 4.42 µM (inactive) | GI50 (Malme-3M): > 100 µM (inactive) | GI50 (NCI-H23): > 100 µM (inactive) | GI50 (NCI-H460): > 100 µM (inactive) | GI50 (NCI/ADR-RES): 37.8 µM (inactive) | GI50 (OVCAR-3): > 100 µM (inactive) | GI50 (OVCAR-4): 56.8 µM (inactive) | GI50 (OVCAR-5): > 100 µM (inactive) | GI50 (PC-3): 49.7 µM (inactive) | GI50 (RPMI-8226): 28.1 µM (inactive) | GI50 (RXF 393): 20.2 µM (inactive) | GI50 (SF-268): > 100 µM (inactive) | GI50 (SF-295): > 100 µM (inactive) | GI50 (SF-539): > 100 µM (inactive) | GI50 (SK-MEL-28): > 100 µM (inactive) | GI50 (SK-MEL-2): > 100 µM (inactive) | GI50 (SK-MEL-5): 31.6 µM (inactive) | GI50 (SK-OV-3): > 100 µM (inactive) | GI50 (SN12C): > 100 µM (inactive) | GI50 (SNB-19): > 100 µM (inactive) | GI50 (SNB-75): 23.4 µM (inactive) | GI50 (SR): 31.6 µM (inactive) | GI50 (SW-620): 55.8 µM (inactive) | GI50 (TK-10): 69.3 µM (inactive) | GI50 (U-251): 54.6 µM (inactive) | GI50 (UACC-257): > 100 µM (inactive) | GI50 (UACC-62): 42.2 µM (inactive) | GI50 (UO-31): 80.7 µM (inactive)

Cc1cc(C)nc(NCCC(O)(P(=O)(O)O)P(=O)(O)O)n1
GI50 (786-0): > 100 µM (inactive) | GI50 (A549): > 100 µM (inactive) | GI50 (ACHN): > 100 µM (inactive) | GI50 (BT-549): > 100 µM (inactive) | GI50 (CAKI-1): > 100 µM (inactive) | GI50 (COLO 205): > 100 µM (inactive) | GI50 (DU-145): > 100 µM (inactive) | GI50 (EKVX): > 100 µM (inactive) | GI50 (HCC 2998): > 100 µM (inactive) | GI50 (HCT-116): > 100 µM (inactive) | GI50 (HCT-15): > 100 µM | GI50 (HOP-62): > 100 µM (inactive) | GI50 (IGROV-1): > 100 µM (inactive) | GI50 (KM12): > 100 µM (inactive) | GI50 (LOX IMVI): > 100 µM (inactive) | GI50 (M14): > 100 µM (inactive) | GI50 (MCF7): 92.5 µM (inactive) | GI50 (MDA-MB-231): > 100 µM (inactive) | GI50 (MDA-N): > 100 µM (inactive) | GI50 (Malme-3M): > 100 µM (inactive) | GI50 (NCI-H226): > 100 µM (inactive) | GI50 (NCI-H23): > 100 µM (inactive) | GI50 (NCI-H460): > 100 µM (inactive) | GI50 (NCI-H522): > 100 µM (inactive) | GI50 (NCI/ADR-RES): > 100 µM (inactive) | GI50 (OVCAR-3): 39.2 µM (inactive) | GI50 (OVCAR-5): > 100 µM (inactive) | GI50 (PC-3): > 100 µM (inactive) | GI50 (RXF 393): > 100 µM (inactive) | GI50 (SF-268): > 100 µM (inactive) | GI50 (SF-295): > 100 µM (inactive) | GI50 (SF-539): > 100 µM (inactive) | GI50 (SK-MEL-5): > 100 µM (inactive) | GI50 (SK-OV-3): > 100 µM (inactive) | GI50 (SNB-19): > 100 µM (inactive) | GI50 (TK-10): > 100 µM (inactive) | GI50 (UACC-257): > 100 µM (inactive) | GI50 (UACC-62): > 100 µM (inactive) | GI50 (UO-31): > 100 µM (inactive)
